Data reported in US9511073B2, “Aromatic amides and uses thereof” (TAXIS Pharmaceuticals, Inc., priority 2011, dated 2016).
Converted amounts (≈) assume the structure as drawn.

System: Staphylococcus aureus (Isolate ID ATCC 29213)
Assay: Bacterial assay: MIC by broth microdilution or agar dilution (CLSI), S. aureus ATCC 29213
Assay type: cell-based
Settings: Staphylococcus aureus, ATCC29213, read-out: S. aureus MIC (μg/mL) Activity Range, S. aureus (ATCC29213)
Experimental: Compounds are tested for antimicrobial activity by susceptibility testing in liquid or on solid media. Minimum inhibitory concentrations (MICs) for compounds against each strain are determined by the broth microdilution or agar dilution method according to the guidelines of the Clinical Laboratories and Standards Institute, formerly the National Committee for Clinical Laboratory Standards (Clinical Laboratories and Standards Institute. Methods for Dilution Antimicrobial Susceptibility Tests for Bacteria That Grow Aerobically; Approved Standard—Seventh Edition. Document M7-A7. CLSI, Wayne, Pa., 2006; Clinical Laboratories and Standards Institute). The bacterial strains tested include S. aureus (Staphylococcus aureus (Isolate ID ATCC 29213)) and an FtsZ mutant of this isolate (FtsZ-G196A Staphylococcus aureus (Isolate ID GG/190723/sa/1.2)). Compound MICs were determined to be in the following activity ranges “A” activity≦0.25 μg/mL; “B” activity>0.25 μg/mL-1.0 μg/mL; “C” activity>1.0 μg/mL-16 μg/mL; “D” activity>16 μg/mL and ND=not determined. The bracketed entries indicate entantiomer(s) and their activity.

SMILES | MIC [µg/mL]
COc1ncc(-c2csc(C(C)Oc3ccc(F)c(C(N)=O)c3F)n2)s1 (centres unmarked) [Compound 3] | < 0.25
CN(CC(=O)OCC(Oc1ccc(F)c(C(N)=O)c1F)c1nc(-c2ccc(Cl)cc2)c(Cl)o1)C(=O)OC(C)(C)C (centres unmarked) [Compound 58, 2-(3-carbamoyl-2,4-difluorophenoxy)-2-(5-chloro-4-(4-chlorophenyl)oxazol-2-yl)ethyl 2-((tert-butoxycarbonyl)(methyl)amino)acetate] | 1 to 16 (≈ 1.67 to 26.6 µM)
Cc1cccc(CNC(=O)OCC(Oc2ccc(F)c(C(N)=O)c2F)c2nc(-c3ccc(C(F)(F)F)cc3)c(Br)o2)n1 (centres unmarked) [Compound 199, 2-(5-bromo-4-(4-(trifluoromethyl)phenyl)oxazol-2-yl)-2-(3-carbamoyl-2,4-difluorophenoxy)ethyl ((6-methylpyridin-2-yl)methyl)carbamate] | 0.25 to 1 (≈ 0.381 to 1.53 µM)
CNc1ccc(-c2coc(C(CO)Oc3ccc(F)c(C(N)=O)c3F)n2)cn1 (centres unmarked) [Compound 220, 2,6-difluoro-3-(2-hydroxy-1-(4-(6-(methylamino)pyridin-3-yl)oxazol-2-yl)ethoxy)benzamide] | > 16
NC(=O)c1c(F)ccc(OC(COC(=O)NCCO)c2nc(-c3ccc(C(F)(F)F)cc3)c(Br)o2)c1F (centres unmarked) [Compound 163, 2-(5-bromo-4-(4-(trifluoromethyl)phenyl)oxazol-2-yl)-2-(3-carbamoyl-2,4-difluorophenoxy)ethyl (2-hydroxyethyl)carbamate] | 0.25 to 1 (≈ 0.421 to 1.68 µM)
C=CCOC(=O)CCC(=O)OCC(Oc1ccc(F)c(C(N)=O)c1F)c1nc(-c2ccc(C(F)(F)F)cc2)c(Br)o1 (centres unmarked) [Compound 70, allyl (2-(5-bromo-4-(4-(trifluoromethyl)phenyl)oxazol-2-yl)-2-(3-carbamoyl-2,4-difluorophenoxy)ethyl) succinate] | 0.25 to 1
CCOc1ncc(-c2csc(C(C)Oc3ccc(F)c(C(N)=O)c3F)n2)s1 (centres unmarked) [Compound 14] | < 0.25
CCNC(=O)NCC(Oc1ccc(F)c(C(N)=O)c1F)c1nc(-c2ccc(C(F)(F)F)cc2)c(Br)o1 (centres unmarked) [Compound 291, 3-(1-(5-bromo-4-(4-(trifluoromethyl)phenyl)oxazol-2-yl)-2-(3-ethylureido)ethoxy)-2,6-difluorobenzamide] | < 0.25
NC(=O)c1c(F)ccc(OC(CO)c2nc(-c3ccc(O)cc3)c(Br)o2)c1F (centres unmarked) [Compound 110, 3-(1-(5-bromo-4-(4-hydroxyphenyl)oxazol-2-yl)-2-hydroxyethoxy)-2,6-difluorobenzamide] | > 16
CC(Oc1ccc(F)c(C(N)=O)c1F)c1nc(-c2ccc(C(F)(F)F)cc2)c(Cl)o1 (centres unmarked) [Compound 32] | 0.25 to 1 (≈ 0.56 to 2.24 µM)
NC(=O)c1c(F)ccc(OC(CO)c2nc(-c3ccc(C(F)(F)F)cc3)oc2Br)c1F (centres unmarked) [Compound 138, 3-(1-(5-bromo-2-(4-(trifluoromethyl)phenyl)oxazol-4-yl)-2-hydroxyethoxy)-2,6-difluorobenzamide] | 1 to 16 (≈ 1.97 to 31.5 µM)
CC(=O)NNC(=O)CC(Oc1ccc(F)c(C(N)=O)c1F)c1nc(-c2ccc(C(F)(F)F)cc2)c(Br)o1 (centres unmarked) [Compound 100, 3-(3-(2-acetylhydrazinyl)-1-(5-bromo-4-(4-(trifluoromethyl)phenyl)oxazol-2-yl)-3-oxopropoxy)-2,6-difluorobenzamide] | 1 to 16 (≈ 1.69 to 27.1 µM)
NC(=O)c1c(F)ccc(OC(COC(=O)CN2C(=O)c3ccccc3C2=O)c2nc(-c3ccc(C(F)(F)F)cc3)c(Br)o2)c1F (centres unmarked) [Compound 60, 2-(5-bromo-4-(4-(trifluoromethyl)phenyl)oxazol-2-yl)-2-(3-carbamoyl-2,4-difluorophenoxy)ethyl 2-(1,3-dioxoisoindolin-2-yl)acetate] | 0.25 to 1 (≈ 0.36 to 1.44 µM)
COCCOCC(=O)NCC(Oc1ccc(F)c(C(N)=O)c1F)c1nc(-c2ccc(C(F)(F)F)cc2)c(Br)o1 (centres unmarked) [Compound 301, 3-(1-(5-bromo-4-(4-(trifluoromethyl)phenyl)oxazol-2-yl)-2-(2-(2-methoxyethoxy)acetamido)ethoxy)-2,6-difluorobenzamide] | 1 to 16 (≈ 1.61 to 25.7 µM)
NC(=O)c1c(F)ccc(OC(COC(=O)NCc2ccc[n+]([O-])c2)c2nc(-c3ccc(C(F)(F)F)cc3)c(Br)o2)c1F (centres unmarked) [Compound 174, 3-((((2-(5-bromo-4-(4-(trifluoromethyl)phenyl)oxazol-2-yl)-2-(3-carbamoyl-2,4-difluorophenoxy)ethoxy)carbonyl)amino)methyl)pyridine 1-oxide] | > 16
COC(=O)CCNC(=O)OCC(Oc1ccc(F)c(C(N)=O)c1F)c1nc(-c2ccc(C(F)(F)F)cc2)c(Br)o1 (centres unmarked) [Compound 141, methyl 3-(((2-(5-bromo-4-(4-(trifluoromethyl)phenyl)oxazol-2-yl)-2-(3-carbamoyl-2,4-difluorophenoxy)ethoxy)carbonyl)amino)propanoate] | < 0.25

SMILES | MIC [µg/mL]
CCCc1oc(C(CO)Oc2ccc(F)c(C(N)=O)c2F)nc1-c1ccc(C(F)(F)F)cc1 (centres unmarked) [Compound 67, 2,6-difluoro-3-(2-hydroxy-1-(5-propyl-4-(4-(trifluoromethyl)phenyl)oxazol-2-yl)ethoxy)benzamide] | 1 to 16 (≈ 2.13 to 34 µM)
C=CCc1oc(C(CO)Oc2ccc(F)c(C(N)=O)c2F)nc1-c1ccc(C(F)(F)F)cc1 (centres unmarked) [Compound 66, 3-(1-(5-allyl-4-(4-(trifluoromethyl)phenyl)oxazol-2-yl)-2-hydroxyethoxy)-2,6-difluorobenzamide] | 1 to 16 (≈ 2.14 to 34.2 µM)
NC(=O)c1c(F)ccc(O[C@H](COCCO)c2nc(-c3ccc(F)cc3F)c(Br)o2)c1F [Compound 265B, (R)-3-(1-(5-bromo-4-(2,4-difluorophenyl)oxazol-2-yl)-2-(2-hydroxyethoxy)ethoxy)-2,6-difluorobenzamide] | 1 to 16 (≈ 1.93 to 30.8 µM)
C=CCC(Oc1ccc(F)c(C(N)=O)c1F)c1nc(-c2ccc(Cl)cc2)c(Br)o1 (centres unmarked) [Compound 104, 3-((1-(5-bromo-4-(4-chlorophenyl)oxazol-2-yl)but-3-en-1-yl)oxy)-2,6-difluorobenzamide] | 1 to 16 (≈ 2.07 to 33.1 µM)
COc1cc(CNC(=O)OCC(Oc2ccc(F)c(C(N)=O)c2F)c2nc(-c3ccc(C(F)(F)F)cc3)c(Br)o2)ccn1 (centres unmarked) [Compound 209, 2-(5-bromo-4-(4-(trifluoromethyl)phenyl)oxazol-2-yl)-2-(3-carbamoyl-2,4-difluorophenoxy)ethyl ((2-methoxypyridin-4-yl)methyl)carbamate] | 0.25 to 1 (≈ 0.372 to 1.49 µM)
NC(=O)c1c(F)ccc(OC(COC(=O)CCN2C(=O)c3ccccc3C2=O)c2nc(-c3ccc(C(F)(F)F)cc3)c(Br)o2)c1F (centres unmarked) [Compound 64, 2-(5-bromo-4-(4-(trifluoromethyl)phenyl)oxazol-2-yl)-2-(3-carbamoyl-2,4-difluorophenoxy)ethyl 3-(1,3-dioxoisoindolin-2-yl)propanoate] | < 0.25
NC(=O)c1c(F)ccc(OC(Cn2ccnc2)c2nc(-c3ccc(C(F)(F)F)cc3)c(Br)o2)c1F (centres unmarked) [Compound 114, 3-(1-(5-bromo-4-(4-(trifluoromethyl)phenyl)oxazol-2-yl)-2-(1H-imidazol-1-yl)ethoxy)-2,6-difluorobenzamide] | 1 to 16 (≈ 1.79 to 28.7 µM)
NC(=O)c1c(F)ccc(OC(CO)c2scc(-c3ccc(Cl)cc3)[n+]2[O-])c1F (centres unmarked) [Compound 267, 2-(1-(3-carbamoyl-2,4-difluorophenoxy)-2-hydroxyethyl)-4-(4-chlorophenyl)thiazole 3-oxide] | > 16
NC(=O)c1c(F)ccc(OC(c2nc(-c3ccc(C(F)(F)F)cc3)c(Br)o2)C(O)CO)c1F (centres unmarked) [Compound 189, 3-(1-(5-bromo-4-(4-(trifluoromethyl)phenyl)oxazol-2-yl)-2,3-dihydroxypropoxy)-2,6-difluorobenzamide] | 1 to 16 (≈ 1.86 to 29.8 µM)
COc1ccc(CNC(=O)OCC(Oc2ccc(F)c(C(N)=O)c2F)c2nc(-c3ccc(C(F)(F)F)cc3)c(Br)o2)cn1 (centres unmarked) [Compound 208, 2-(5-bromo-4-(4-(trifluoromethyl)phenyl)oxazol-2-yl)-2-(3-carbamoyl-2,4-difluorophenoxy)ethyl ((6-methoxypyridin-3-yl)methyl)carbamate] | 0.25 to 1 (≈ 0.372 to 1.49 µM)
CCOC(=O)C(Oc1ccc(F)c(C(N)=O)c1F)c1nc(-c2ccc(Cl)cc2)co1 (centres unmarked) [Compound 6, ethyl 2-(3-carbamoyl-2,4-difluorophenoxy)-2-(4-(4-chlorophenyl)oxazol-2-yl)acetate] | 1 to 16 (≈ 2.29 to 36.6 µM)
NC(=O)c1c(F)ccc(OC(C(=O)O)c2csc(-c3ccc(C(F)(F)F)cc3)n2)c1F (centres unmarked) [Compound 127, 2-(3-carbamoyl-2,4-difluorophenoxy)-2-(2-(4-(trifluoromethyl)phenyl)thiazol-4-yl)acetic acid] | > 16
CC(Oc1ccc(F)c(C(N)=O)c1F)c1nc(-c2ccc(C(F)(F)F)cn2)c(Cl)o1 (centres unmarked) [Compound 43] | 1 to 16 (≈ 2.23 to 35.7 µM)
CC(=O)OCC(COC(C)=O)CC(Oc1ccc(F)c(C(N)=O)c1F)c1nc(-c2ccc(C(F)(F)F)cc2)c(Br)o1 (centres unmarked) [Compound 133, 2-(2-(5-bromo-4-(4-(trifluoromethyl)phenyl)oxazol-2-yl)-2-(3-carbamoyl-2,4-difluorophenoxy)ethyl)propane-1,3-diyl diacetate] | > 16
Cc1ccc(-c2nc(C(CO)Oc3ccc(F)c(C(N)=O)c3F)oc2Br)s1 (centres unmarked) [Compound 244, 3-(1-(5-bromo-4-(5-methylthiophen-2-yl)oxazol-2-yl)-2-hydroxyethoxy)-2,6-difluorobenzamide] | 1 to 16 (≈ 2.18 to 34.8 µM)
COCCn1cncc1CNC(=O)OCC(Oc1ccc(F)c(C(N)=O)c1F)c1nc(-c2ccc(C(F)(F)F)cc2)c(Br)o1 (centres unmarked) [Compound 207, 2-(5-bromo-4-(4-(trifluoromethyl)phenyl)oxazol-2-yl)-2-(3-carbamoyl-2,4-difluorophenoxy)ethyl ((1-(2-methoxyethyl)-1H-imidazol-5-yl)methyl)carbamate] | 1 to 16 (≈ 1.45 to 23.2 µM)
